The source of these data is patent US6608086B2, “Dihydropyridines and new uses thereof” (Synaptic Pharmaceutical Corporation, priority 1993, dated 2003).

In series [1] the target is T1, α1A Human Adrenergic Receptor (Homo sapiens, UniProt P25100).
T1 construct: The entire coding region of α1A (1719 bp); expressed in transfected cells
T1 sequence (P25100 1-572): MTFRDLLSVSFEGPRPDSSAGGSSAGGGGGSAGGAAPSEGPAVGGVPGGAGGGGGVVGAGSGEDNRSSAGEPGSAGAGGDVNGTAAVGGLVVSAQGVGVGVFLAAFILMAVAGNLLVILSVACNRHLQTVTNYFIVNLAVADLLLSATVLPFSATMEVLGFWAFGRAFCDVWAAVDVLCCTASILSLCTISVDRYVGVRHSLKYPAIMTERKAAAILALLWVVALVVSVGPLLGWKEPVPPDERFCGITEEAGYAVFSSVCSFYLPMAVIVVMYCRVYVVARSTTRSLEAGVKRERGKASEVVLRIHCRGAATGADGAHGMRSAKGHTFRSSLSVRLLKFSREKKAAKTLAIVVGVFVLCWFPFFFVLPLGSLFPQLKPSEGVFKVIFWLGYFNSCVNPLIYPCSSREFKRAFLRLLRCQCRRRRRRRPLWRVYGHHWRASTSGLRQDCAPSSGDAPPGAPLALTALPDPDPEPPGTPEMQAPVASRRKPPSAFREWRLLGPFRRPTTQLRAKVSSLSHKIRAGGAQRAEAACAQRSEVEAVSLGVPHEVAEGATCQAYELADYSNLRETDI
Nature of the series: Radioligand binding, [3H]prazosin, cloned human α1A adrenergic receptor. The method in brief: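 In pH 7.5 Tris/MgCl2/ascorbic acid buffer, α1A-expressing LM(tk−) membranes are exposed to 0.5 nM [3H]prazosin (37° C, 20 min). Excess phentolamine (10 μM) marks nonspecific binding before rapid filtration.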

For the next series, the target named is T2, L-type calcium channel (Rattus norvegicus, UniProt P22002).
T2 construct: membrane fragments of rat cardiac muscle; from tissue; host or cells: rat cardiac muscle membranes
T2 sequence (P22002 whole entry, other chains not shown, the tested form may be a part): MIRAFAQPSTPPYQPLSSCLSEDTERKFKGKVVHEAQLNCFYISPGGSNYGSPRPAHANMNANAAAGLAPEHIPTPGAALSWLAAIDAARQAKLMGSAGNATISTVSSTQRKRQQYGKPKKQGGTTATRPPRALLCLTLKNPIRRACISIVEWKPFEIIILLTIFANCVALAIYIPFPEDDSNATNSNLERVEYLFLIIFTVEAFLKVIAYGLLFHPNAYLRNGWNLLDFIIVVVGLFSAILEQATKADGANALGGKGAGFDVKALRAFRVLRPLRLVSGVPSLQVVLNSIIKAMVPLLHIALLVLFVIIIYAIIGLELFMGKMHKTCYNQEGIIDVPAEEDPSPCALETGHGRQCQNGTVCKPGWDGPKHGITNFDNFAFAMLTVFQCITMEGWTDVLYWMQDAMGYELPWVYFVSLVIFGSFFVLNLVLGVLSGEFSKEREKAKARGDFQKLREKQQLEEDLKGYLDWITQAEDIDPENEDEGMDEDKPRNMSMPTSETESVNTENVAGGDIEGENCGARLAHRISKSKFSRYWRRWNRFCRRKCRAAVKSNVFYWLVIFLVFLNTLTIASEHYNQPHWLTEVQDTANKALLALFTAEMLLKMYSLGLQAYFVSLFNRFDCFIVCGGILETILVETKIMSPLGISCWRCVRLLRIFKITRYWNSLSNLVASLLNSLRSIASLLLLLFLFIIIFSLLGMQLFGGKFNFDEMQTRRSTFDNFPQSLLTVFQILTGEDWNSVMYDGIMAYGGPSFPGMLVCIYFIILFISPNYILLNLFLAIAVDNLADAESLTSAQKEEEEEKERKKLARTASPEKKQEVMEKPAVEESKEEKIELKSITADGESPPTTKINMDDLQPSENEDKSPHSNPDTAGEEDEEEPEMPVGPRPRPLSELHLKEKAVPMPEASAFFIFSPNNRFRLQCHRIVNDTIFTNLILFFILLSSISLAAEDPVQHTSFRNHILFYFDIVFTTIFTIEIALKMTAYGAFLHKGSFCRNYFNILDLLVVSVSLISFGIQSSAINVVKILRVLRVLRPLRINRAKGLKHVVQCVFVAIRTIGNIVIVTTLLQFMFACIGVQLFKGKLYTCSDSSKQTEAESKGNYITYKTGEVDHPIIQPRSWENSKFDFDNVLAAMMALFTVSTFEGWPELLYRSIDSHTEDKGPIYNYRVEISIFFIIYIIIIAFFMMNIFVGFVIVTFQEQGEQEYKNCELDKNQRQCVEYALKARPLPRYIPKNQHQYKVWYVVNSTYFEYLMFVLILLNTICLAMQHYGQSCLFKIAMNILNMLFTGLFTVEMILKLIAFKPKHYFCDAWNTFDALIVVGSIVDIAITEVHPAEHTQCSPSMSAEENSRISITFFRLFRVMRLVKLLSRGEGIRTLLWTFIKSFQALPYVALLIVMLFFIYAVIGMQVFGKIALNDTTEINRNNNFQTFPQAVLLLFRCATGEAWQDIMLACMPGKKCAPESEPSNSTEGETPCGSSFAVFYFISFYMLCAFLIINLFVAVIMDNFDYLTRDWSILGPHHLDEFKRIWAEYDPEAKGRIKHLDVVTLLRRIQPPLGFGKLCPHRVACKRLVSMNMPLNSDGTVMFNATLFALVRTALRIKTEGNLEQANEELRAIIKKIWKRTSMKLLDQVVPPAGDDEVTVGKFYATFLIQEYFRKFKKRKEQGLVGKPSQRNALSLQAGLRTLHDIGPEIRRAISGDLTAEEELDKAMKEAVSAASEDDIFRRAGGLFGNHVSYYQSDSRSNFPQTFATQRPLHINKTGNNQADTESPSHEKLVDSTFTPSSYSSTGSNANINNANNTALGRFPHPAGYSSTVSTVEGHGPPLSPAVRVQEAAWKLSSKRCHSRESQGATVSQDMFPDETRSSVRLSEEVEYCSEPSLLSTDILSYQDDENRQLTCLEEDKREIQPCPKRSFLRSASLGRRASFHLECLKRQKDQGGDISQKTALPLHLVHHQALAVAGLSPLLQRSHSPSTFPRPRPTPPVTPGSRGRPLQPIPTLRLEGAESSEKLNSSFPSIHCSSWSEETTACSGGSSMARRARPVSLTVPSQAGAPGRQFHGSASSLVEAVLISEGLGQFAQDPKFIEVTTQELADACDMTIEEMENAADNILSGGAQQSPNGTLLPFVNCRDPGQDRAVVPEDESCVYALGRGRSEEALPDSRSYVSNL
T2 sequence (P54290 25-944 partner limits assumed, other chains not shown): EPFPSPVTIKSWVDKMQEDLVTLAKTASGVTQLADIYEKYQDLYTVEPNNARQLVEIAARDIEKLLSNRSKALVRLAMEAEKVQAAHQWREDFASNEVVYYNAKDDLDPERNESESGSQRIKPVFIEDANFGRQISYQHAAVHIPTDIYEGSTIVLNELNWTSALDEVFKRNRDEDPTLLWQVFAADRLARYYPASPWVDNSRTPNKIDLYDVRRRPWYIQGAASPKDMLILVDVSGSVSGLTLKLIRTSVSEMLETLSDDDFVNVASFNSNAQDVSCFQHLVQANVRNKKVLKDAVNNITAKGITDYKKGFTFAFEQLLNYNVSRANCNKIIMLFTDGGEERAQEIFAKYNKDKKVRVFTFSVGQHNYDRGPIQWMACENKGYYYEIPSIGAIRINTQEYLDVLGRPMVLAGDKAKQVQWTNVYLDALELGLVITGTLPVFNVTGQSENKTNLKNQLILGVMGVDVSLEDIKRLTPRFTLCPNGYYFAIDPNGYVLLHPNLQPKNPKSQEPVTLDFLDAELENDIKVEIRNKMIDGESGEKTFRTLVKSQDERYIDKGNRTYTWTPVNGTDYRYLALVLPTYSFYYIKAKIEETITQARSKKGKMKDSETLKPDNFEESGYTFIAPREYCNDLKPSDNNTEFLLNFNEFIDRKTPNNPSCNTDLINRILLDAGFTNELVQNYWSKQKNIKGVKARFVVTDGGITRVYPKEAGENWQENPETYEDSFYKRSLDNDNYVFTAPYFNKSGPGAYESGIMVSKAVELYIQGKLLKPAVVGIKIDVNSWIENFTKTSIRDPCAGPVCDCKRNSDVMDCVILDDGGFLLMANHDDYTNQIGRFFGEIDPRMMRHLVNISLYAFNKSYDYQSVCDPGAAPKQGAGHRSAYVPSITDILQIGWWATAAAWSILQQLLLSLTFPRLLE
T2 sequence (P54290 945-1091 partner limits assumed, other chains not shown): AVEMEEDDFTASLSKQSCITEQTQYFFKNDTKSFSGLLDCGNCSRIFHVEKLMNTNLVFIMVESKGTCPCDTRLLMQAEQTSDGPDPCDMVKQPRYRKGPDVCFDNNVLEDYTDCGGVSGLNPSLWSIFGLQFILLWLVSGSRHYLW
The series is described as follows: Competition binding of [3H]nitrendipine to membrane fragments of rat cardiac muscle.

For a further series, the target named is T3, α2B receptor (Homo sapiens, UniProt P18089).
T3 construct: host or cells: LM(tk-) cells, line L-NGC-α2B
T3 sequence (P18089 1-450): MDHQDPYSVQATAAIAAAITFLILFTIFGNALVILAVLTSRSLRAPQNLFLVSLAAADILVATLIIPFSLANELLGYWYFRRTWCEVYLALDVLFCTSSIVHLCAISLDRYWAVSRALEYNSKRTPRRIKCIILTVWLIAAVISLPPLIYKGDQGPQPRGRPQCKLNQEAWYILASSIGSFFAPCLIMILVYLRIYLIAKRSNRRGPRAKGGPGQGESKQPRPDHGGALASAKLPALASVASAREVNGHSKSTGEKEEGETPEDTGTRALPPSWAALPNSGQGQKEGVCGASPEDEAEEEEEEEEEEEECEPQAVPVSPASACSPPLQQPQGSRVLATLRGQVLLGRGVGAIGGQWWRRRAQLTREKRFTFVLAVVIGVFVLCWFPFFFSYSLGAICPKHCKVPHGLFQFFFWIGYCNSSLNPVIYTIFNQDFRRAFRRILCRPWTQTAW
The series is described as follows: Competition binding, [3H]rauwolscine, human α2B receptor. The note with it: [3H]rauwolscine, LM(tk-) cell line L-NGC-α2B; SEM and n in lines below. The text has this:
The protocols for these experiments are given below.
α2 Human Adrenergic Receptors:
To determine the potency of […], antagonists at the α2 receptors, LM(tk−) cell lines stably transfected with the genes encoding the α2A, α2B, and α2C receptors were used. The cell line expressing the α2A receptor is designated L-α2A, and was deposited on Nov. […] The cell line expressing the α2B receptor is designated L-NGC-α2B, and was deposited on Oct. […] The cell line expressing the α2C receptor is designated L-α2C, and was deposited on Nov. […] Cell lysates were prepared as described above (see Radioligand Binding Assays), and suspended in 25 mM glycylglycine buffer (pH 7.6 at room temperature). Equilibrium competition binding assay were performed using [3H]rauwolscine (0.5 nM), and nonspecific binding was determined by incubation with 10 μM phentolamine. The bound radioligand was separated by filtration through GF/B filters using a cell harvester.

The target of series [2] is T4, α1B Human Adrenergic Receptor (Homo sapiens, UniProt P35368).
T4 construct: The entire coding region of α1B (1563 bp); expressed in transfected cells
T4 sequence (P35368 1-520): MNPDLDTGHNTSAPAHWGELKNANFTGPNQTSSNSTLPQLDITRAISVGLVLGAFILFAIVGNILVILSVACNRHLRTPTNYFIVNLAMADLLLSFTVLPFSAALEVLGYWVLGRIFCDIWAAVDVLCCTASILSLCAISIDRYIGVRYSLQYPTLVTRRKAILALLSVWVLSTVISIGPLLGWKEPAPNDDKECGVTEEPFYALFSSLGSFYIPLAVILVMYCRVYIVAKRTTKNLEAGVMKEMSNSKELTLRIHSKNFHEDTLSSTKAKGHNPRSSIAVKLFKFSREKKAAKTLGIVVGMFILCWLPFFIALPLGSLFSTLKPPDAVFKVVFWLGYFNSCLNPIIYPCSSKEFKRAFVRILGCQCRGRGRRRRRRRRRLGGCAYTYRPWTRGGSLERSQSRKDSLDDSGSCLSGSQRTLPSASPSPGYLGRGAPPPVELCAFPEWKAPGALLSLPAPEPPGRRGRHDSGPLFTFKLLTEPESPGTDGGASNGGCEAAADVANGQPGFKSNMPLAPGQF
The series is described as follows: Radioligand binding, [3H]prazosin, cloned human α1B adrenergic receptor. The note with it: cloned human receptor, LM(tk-) cell membranes, mean, read-out: PKi alpha-1 1b (converted). The method in brief:
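[3H]prazosin (0.5 nM) binding was run for 20 min at 37° C in pH 7.5 Tris/MgCl2/ascorbate buffer on membranes of LM(tk−) cells stably expressing the cloned receptor. Filtration through GF/B ended the reaction; 10 μM phentolamine gave nonspecific binding.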

In series [3] the target is T5, α1C Human Adrenergic Receptor (Homo sapiens, UniProt P35348).
T5 construct: The entire coding region of α1C (1401 bp); expressed in transfected cells
T5 sequence (P35348 1-466): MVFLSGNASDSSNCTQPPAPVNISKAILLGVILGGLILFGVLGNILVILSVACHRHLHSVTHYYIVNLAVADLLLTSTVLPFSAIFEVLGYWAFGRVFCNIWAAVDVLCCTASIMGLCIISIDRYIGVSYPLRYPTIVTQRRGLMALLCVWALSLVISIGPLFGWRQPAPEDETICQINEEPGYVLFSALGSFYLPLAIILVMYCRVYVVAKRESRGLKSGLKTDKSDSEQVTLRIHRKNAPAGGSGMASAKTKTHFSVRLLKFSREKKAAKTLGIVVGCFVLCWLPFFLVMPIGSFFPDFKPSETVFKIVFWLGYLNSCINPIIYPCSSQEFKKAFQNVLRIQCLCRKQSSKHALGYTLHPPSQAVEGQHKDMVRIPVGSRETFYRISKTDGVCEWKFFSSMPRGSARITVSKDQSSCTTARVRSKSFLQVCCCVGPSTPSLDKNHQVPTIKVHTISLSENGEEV
The series is described as follows: Radioligand binding, [3H]prazosin, cloned human α1C adrenergic receptor. Conditions: cloned human receptor, LM(tk-) cell membranes, mean, read-out: PKi alpha-1 1c (converted). The gist of the method: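 LM(tk−) membranes (stable human α1C); [3H]prazosin 0.5 nM; 37° C., 20 min; Tris-HCl 50 mM/MgCl2 1 mM/ascorbate 0.1%, pH 7.5; NSB 10 μM phentolamine; GF/B filtration.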

Where [4] appears, read: [3H]nitrendipine, rat cardiac muscle membranes, SEM and n in lines below, read-out: pKi Ca (converted).
The mark [5] stands for this setting: [3H]prazosin, cloned human receptor, LM(tk-) cell membranes, mean, read-out: PKi alpha-1 1a (converted).
The mark [6] stands for this setting: [3H]nitrendipine, rat cardiac muscle membranes, mean, read-out: PKi Ca (converted).

Like-named read-outs stand apart in the source and are kept apart here.

Turning to `CC1=C(C(N)=O)C(c2ccc([N+](=O)[O-])cc2)C(C(=O)NCCCN2CCC(c3ccccc3)(c3ccccc3)CC2)=C(C)N1` (racemic) [(±)-2], the “pKi alpha-1 1a” value in series [1] stood at 6.22. Further, the Ki on L-type calcium channel (setting [4]) is 200 µM. On α2B receptor, the “pKi alpha-2 2b” value is recorded as 6.38.
Take `CC1=C(C(N)=O)C(c2ccc([N+](=O)[O-])cc2)C(C(=O)NCCCN2CCC(c3ccccc3)(c3ccccc3)CC2)=C(C)N1` (single isomer, unassigned; (+)) [(+)-2]: in series [1] ([3H]prazosin, cloned human receptor in LM(tk-) cell membranes, SEM and n in lines below), the “pKi alpha-1 1a” value amounted to 6.40. In addition, the “pKi Ca” value at L-type calcium channel ([3H]nitrendipine, rat cardiac muscle membranes, SEM and n in lines below) is 4.11. Moreover, on α2B receptor, the “pKi alpha-2 2b” value worked out at 6.40.
As for `CC1=C(C(N)=O)C(c2ccc([N+](=O)[O-])cc2)C(C(=O)NCCCN2CCC(c3ccccc3)(c3ccccc3)CC2)=C(C)N1` (single isomer, unassigned; (-)) [(−)-2], the “pKi alpha-1 1a” value in series [1] was found to be 6.46. Further, the Ki at L-type calcium channel (setting [4]) is 1820 µM. The “pKi alpha-2 2b” value at α2B receptor came out at 6.56.
As usually defined, the melting point is the temperature, or range, at which the solid turns liquid. In turn, `CCC1=C(C(=O)NC)C(c2ccc([N+](=O)[O-])cc2)C(C(=O)NCCCN2CCC(C(=O)OC)(c3ccccc3)CC2)=C(COCCN=[N+]=[N-])N1` (centres unmarked) [Example 228, 2-((2-Azidoethyl)oxy)methyl-6-ethyl-1,4-dihydro-3-(N-(3-(4-methoxycarbonyl-4-phenylpiperidin-1-yl)propyl))carbo xamido-5-N-methylcarboxamido-4-(4-nitro)phenylpyridine] returned a melting point of 73 to 83 °C. Moreover, in series [1] (setting [5]), the Ki is 3.47 µM. Also, the Ki at L-type calcium channel (setting [6]) is 33.9 µM. Moreover, in series [2], the Ki is 1.48 µM. Also, the Ki in series [3] is 0.0166 µM.
On the same counts, the results for `CCNC(=O)C1=C(CC)NC(COCCN=[N+]=[N-])=C(C(=O)NCCCN2CCC(C(=O)OC)(c3ccccc3)CC2)C1c1ccc([N+](=O)[O-])cc1` (centres unmarked) [Example 230, 2-((2-Azidoethyl)oxy)methyl-6-ethyl-5-N-ethylcarboxamido-1,4-dihydro-3-(N-(3-(4-methoxycarbonyl-4-phenylpiperidin-1-yl)propyl))carboxamido-4-(4-nitro)phenylpyridine] are 70 °C (dec.), 1.78 µM, 9.12 µM, 0.692 µM and 0.00871 µM.
On the same counts, the results for `CCC1=C(C(N)=O)C(c2ccc([N+](=O)[O-])cc2)C(C(=O)NCCCN2CCC(C(=O)OC)(c3ccccc3)CC2)=C(COCCN=[N+]=[N-])N1` (centres unmarked) [Example 231, 2-((2-Azidoethyl)oxy)methyl-5-carboxamido-6-ethyl-1,4-dihydro-3-(N-(3-(4-methoxycarbonyl-4-phenylpiperidin-1-yl)propyl))carboxamido-4-(4-nitro)phenylpyridine] are 70 to 75 °C, 1.23 µM, 389 µM, 0.501 µM and 0.00437 µM.
Turning to `CCC1=C(C(=O)OC)C(c2ccc([N+](=O)[O-])cc2)C(C(=O)NCCCN2CCC(C(=O)OC)(c3ccccc3)CC2)=C(COCCN=[N+]=[N-])N1` (centres unmarked) [Example 232, 2-((2-Azidoethyl)oxy)methyl-6-ethyl-5-methoxycarbonyl-3-(N-(3 (4-methoxycarbonyl-4-phenylpiperidin-1-yl)propyl))carbo xamido-1,4-dihydro-4-(4-nitro)phenylpyridine], the melting point was in the range of 50 to 60 °C. Further, in series [1] (PKi alpha-1 1a), the Ki was 0.417 µM. Moreover, the Ki on L-type calcium channel (PKi Ca) was 0.692 µM. Further, in series [2], the Ki was 0.219 µM. Moreover, in series [3], the Ki is 0.00759 µM.
